Reference: patent US9376425B2, “Heterocyclic compounds as MDM2 inhibitors for the treatment of cancer” (AMGEN INC., priority 2011, dated 2016)

Molecular target: T1, human MDM2 (GST-hMDM2 1-188), interaction with biotinylated-p53 (1-83) (Homo sapiens, UniProt Q00987)
T1 construct: Amino acid residues 1-188 of human MDM2 were expressed; made in house; host or cells: Escherichia coli
Experiment: improved HTRF assay (HTRF2 assay), inhibition of HDM2-p53 interaction
Type: binding
Conditions: 0.2 nM GST-hMDM2, 0.5 nM biotinylated-p53, 100 mM KF
Procedure: Residues 1-83 of human p53 were expressed as an amino-terminal AviTag™-TrxA-6xHis fusion protein (biotinylated p53) in E. coli. Each protein was purified from cell paste by affinity chromatography.
Specifically, 10 uL of GST-hMDM2 was incubated with 10 ul of diluted compound (various concentrations, serially diluted) in 10% DMSO for 20 minutes at room temperature. 20 uL of biotinylated-p53 was added to the GST-hMDM2+ compound mixture, and then incubated at room temperature for 60 min. 10 uL of detection buffer consisting of SA-XLent, anti-GST cryptate antibody and KF was added to GST-hMDM2, biotinylated-p53 and compound reaction and left at room temperature to reach equilibrium for >4 hrs. The final concentration of DMSO in the reaction was 2%. Time-resolved fluorescence readings were measured on a microplate multilabel reader. Percentage of inhibition was calculated relative to nutlin-3.

T1 sequence (Q00987 1-188): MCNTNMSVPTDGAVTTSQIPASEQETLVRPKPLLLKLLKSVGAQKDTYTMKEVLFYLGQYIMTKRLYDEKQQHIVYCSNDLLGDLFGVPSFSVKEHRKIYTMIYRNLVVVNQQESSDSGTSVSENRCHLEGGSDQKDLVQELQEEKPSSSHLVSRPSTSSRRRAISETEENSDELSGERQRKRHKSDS

| SMILES | IC50 [nM] |
| --- | --- |
| CC[C@@H](CN(c1ncccc1F)S(=O)(=O)C1CC1)N1C(=O)[C@@H](CC(=O)O)O[C@H](c2cccc(Cl)c2)[C@H]1c1ccc(Cl)cc1 (single isomer, unassigned) [Example 176, 2-((2R,5R,6R)-6-(3-chlorophenyl)-5-(4-chlorophenyl)-4-((S)-1-(N-(3-fluoropyridin-2-yl)cyclopropanesulfonamido)butan-2-yl)-3-oxomorpholin-2-yl)acetic acid or 2-((2S,5R,6R)-6-(3-chlorophenyl)-5-(4-chlorophenyl)-4-((S)-1-(N-(3-fluoropyridin-2-yl)cyclopropanesulfonamido)butan-2-yl)-3-oxomorpholin-2-yl)acetic acid] | < 1 |
| CC[C@@H](CN(c1ncccc1F)S(=O)(=O)C1CC1)N1C(=O)[C@@H](CC(=O)O)O[C@H](c2cccc(Cl)c2)[C@H]1c1ccc(Cl)cc1 (single isomer, unassigned) [Example 177, 2-((2R,5R,6R)-6-(3-chlorophenyl)-5-(4-chlorophenyl)-4-((S)-1-(N-(3-fluoropyridin-2-yl)cyclopropanesulfonamido)butan-2-yl)-3-oxomorpholin-2-yl)acetic acid or 2-((2S,5R,6R)-6-(3-chlorophenyl)-5-(4-chlorophenyl)-4-((S)-1-(N-(3-fluoropyridin-2-yl)cyclopropanesulfonamido)butan-2-yl)-3-oxomorpholin-2-yl)acetic acid] | < 1 |
| C=CC[C@@H]1O[C@H](c2cccc(Cl)c2)[C@@H](c2ccc(Cl)cc2)N([C@@H](CC)CN(c2ccccn2)S(=O)(=O)C2CC2)C1=O (single isomer, unassigned) [Example 178, N-((S)-2-((2S,5R,6R)-2-allyl-6-(3-chlorophenyl)-5-(4-chlorophenyl)-3-oxomorpholino)butyl)-N-(pyridin-2-yl)cyclopropanesulfonamide or N-((S)-2-((2R,5R,6R)-2-allyl-6-(3-chlorophenyl)-5-(4-chlorophenyl)-3-oxomorpholino)butyl)-N-(pyridin-2-yl)cyclopropanesulfonamide] | 182 |
| C=CC[C@@H]1O[C@H](c2cccc(Cl)c2)[C@@H](c2ccc(Cl)cc2)N([C@@H](CC)CN(c2ccccn2)S(=O)(=O)C2CC2)C1=O (single isomer, unassigned) [Example 179, N-((S)-2-((2S,5R,6R)-2-allyl-6-(3-chlorophenyl)-5-(4-chlorophenyl)-3-oxomorpholino)butyl)-N-(pyridin-2-yl)cyclopropanesulfonamide or N-((S)-2-((2R,5R,6R)-2-allyl-6-(3-chlorophenyl)-5-(4-chlorophenyl)-3-oxomorpholino)butyl)-N-(pyridin-2-yl)cyclopropanesulfonamide] | 141 |
| CC[C@@H](CN(c1ccccn1)S(=O)(=O)C1CC1)N1C(=O)[C@H](CC(=O)O)O[C@H](c2cccc(Cl)c2)[C@H]1c1ccc(Cl)cc1 (single isomer, unassigned) [Example 180, 2-((2S,5R,6R)-6-(3-chlorophenyl)-5-(4-chlorophenyl)-3-oxo-4-((S)-1-(N-(pyridin-2-yl)cyclopropanesulfonamido)butan-2-yl)morpholin-2-yl)acetic acid or 2-((2R,5R,6R)-6-(3-chlorophenyl)-5-(4-chlorophenyl)-3-oxo-4-((S)-1-(N-(pyridin-2-yl)cyclopropanesulfonamido)butan-2-yl)morpholin-2-yl)acetic acid] | < 1 |
| CC[C@@H](CN(c1ccccn1)S(=O)(=O)C1CC1)N1C(=O)[C@H](CC(=O)O)O[C@H](c2cccc(Cl)c2)[C@H]1c1ccc(Cl)cc1 (single isomer, unassigned) [Example 181, 2-((2S,5R,6R)-6-(3-chlorophenyl)-5-(4-chlorophenyl)-3-oxo-4-((S)-1-(N-(pyridin-2-yl)cyclopropanesulfonamido)butan-2-yl)morpholin-2-yl)acetic acid or 2-((2R,5R,6R)-6-(3-chlorophenyl)-5-(4-chlorophenyl)-3-oxo-4-((S)-1-(N-(pyridin-2-yl)cyclopropanesulfonamido)butan-2-yl)morpholin-2-yl)acetic acid] | 1 |
| CC[C@@H](CS(=O)(=O)C(C)(C)C)N1C(=O)[C@@H](CC(=O)O)O[C@H](c2cccc(Cl)c2)[C@H]1c1ccc(Cl)c(F)c1 (single isomer, unassigned) [Example 182, 2-((2R,5R,6R)-4-((S)-1-(tert-butylsulfonyl)butan-2-yl)-5-(4-chloro-3-fluorophenyl)-6-(3-chlorophenyl)-3-oxomorpholin-2-yl)acetic acid or 2-((2S,5R,6R)-4-((S)-1-(tert-butylsulfonyl)butan-2-yl)-5-(4-chloro-3-fluorophenyl)-6-(3-chlorophenyl)-3-oxomorpholin-2-yl)acetic acid] | 4 |
| CC[C@@H](CS(=O)(=O)C(C)(C)C)N1C(=O)[C@@H](CC(=O)O)O[C@H](c2cccc(Cl)c2)[C@H]1c1ccc(Cl)c(F)c1 (single isomer, unassigned) [Example 183, 2-((2R,5R,6R)-4-((S)-1-(tert-butylsulfonyl)butan-2-yl)-5-(4-chloro-3-fluorophenyl)-6-(3-chlorophenyl)-3-oxomorpholin-2-yl)acetic acid or 2-((2S,5R,6R)-4-((S)-1-(tert-butylsulfonyl)butan-2-yl)-5-(4-chloro-3-fluorophenyl)-6-(3-chlorophenyl)-3-oxomorpholin-2-yl)acetic acid] | 178 |
| CC[C@@H](CS(=O)(=O)C1CCOCC1)N1C(=O)[C@@H](CC(=O)O)O[C@H](c2cccc(Cl)c2)[C@H]1c1ccc(Cl)cc1 (single isomer, unassigned) [Example 186, 2-((2R,5R,6R)-6-(3-chlorophenyl)-5-(4-chlorophenyl)-3-oxo-4-((S)-1-((tetrahydro-2H-pyran-4-yl)sulfonyl)butan-2-yl)morpholin-2-yl)acetic acid or 2-((2S,5R,6R)-6-(3-chlorophenyl)-5-(4-chlorophenyl)-3-oxo-4-((S)-1-((tetrahydro-2H-pyran-4-yl)sulfonyl)butan-2-yl)morpholin-2-yl)acetic acid] | 2 |
| CC[C@@H](CS(=O)(=O)C1CCOCC1)N1C(=O)[C@@H](CC(=O)O)O[C@H](c2cccc(Cl)c2)[C@H]1c1ccc(Cl)cc1 (single isomer, unassigned) [Example 187, 2-((2R,5R,6R)-6-(3-chlorophenyl)-5-(4-chlorophenyl)-3-oxo-4-((S)-1-((tetrahydro-2H-pyran-4-yl)sulfonyl)butan-2-yl)morpholin-2-yl)acetic acid or 2-((2S,5R,6R)-6-(3-chlorophenyl)-5-(4-chlorophenyl)-3-oxo-4-((S)-1-((tetrahydro-2H-pyran-4-yl)sulfonyl)butan-2-yl)morpholin-2-yl)acetic acid] | 2 |
| O=C(O)C[C@H]1O[C@H](c2cccc(Cl)c2)[C@@H](c2ccc(Cl)cc2)N([C@H](CN(c2ncccc2F)S(=O)(=O)C2CC2)C2CC2)C1=O (single isomer, unassigned) [Example 188, 2-((2R,5R,6R)-6-(3-chlorophenyl)-5-(4-chlorophenyl)-4-((S)-1-cyclopropyl-2-(N-(3-fluoropyridin-2-yl)cyclopropanesulfonamido)ethyl)-3-oxomorpholin-2-yl)acetic acid or 2-((2S,5R,6R)-6-(3-chlorophenyl)-5-(4-chlorophenyl)-4-((S)-1-cyclopropyl-2-(N-(3-fluoropyridin-2-yl)cyclopropanesulfonamido)ethyl)-3-oxomorpholin-2-yl)acetic acid] | < 1 |
